Results from US20200069664A1, “METHODS FOR TREATING INFECTION” (Salix Pharmaceuticals, Ltd, priority 2010, published 2020).
In brackets after ≈: the same amount, converted by molar mass. Read-outs that look alike come from different tables or passages of the source.

Columns and labels:
EAEC = test: Effect of dialyzed supernatants of treated HEp-2 cells on EAEC adherence; type: cell-based, E. coli; conditions: HEp-2 treated 24 h with 64 mg/ml (so in the source); chambered slides with or without HEp-2 cells, 3 h
Procedure: Supernatant dialysis. HEp-2 cells were cultured in T-175 flasks as described above. […] After 24 h, the medium was collected, loaded into regenerated cellulose dialysis tubing (cutoff, 6 to 8 kDa; Spectra/Por, Rancho Domiguez, Calif.), and dialyzed against 4 liters of PBS changed four times. Each dialysis step lasted at least 6 h and was carried out at 4° C. Dialyzed supernatants were either used immediately in adherence assays or stored at −20° C. until use.
The effect of supernatants on EAEC adherence was determined by mixing EAEC with the dialyzed media from the different antibiotic (or control) treatment groups and adding the bacteria to HEp-2 cells cultured in chambered slides or to chambered slides with no HEp-2 cells. Adherence was visualized microscopically as described above.

C difficile isolates = test: In vitro susceptibility of C difficile isolates (agar dilution for rifaximin, Etest for rifampin)
EAEC strain O42 = type: cell-based, E. coli
HEp-2 cells = test: Cytokine array of supernatants of treated HEp-2 cells; conditions: 64 μg/ml, 24 h; Panomics array of 36 cytokines

CO[C@H]1/C=C/O[C@@]2(C)Oc3c(C)c(O)c4c(O)c(c(/C=N/N5CCN(C)CC5)c(O)c4c3C2=O)NC(=O)/C(C)=C\C=C\[C@H](C)[C@H](O)[C@@H](C)[C@@H](O)[C@@H](C)[C@H](OC(C)=O)[C@@H]1C [Rifampin, rifampin]
Adherence of EAEC mixed with dialyzed supernatants from treated HEp-2 cells (EAEC): adhered to chambers independently of the presence of HEp-2 cells
MIC50 (C difficile isolates): < 0.002 µg/mL
MIC90 (C difficile isolates): 4 µg/mL (≈ 4.86 µM)
MIC50 (C difficile isolates; 359 C difficile isolates): <0.002 µg/mL
Resistant isolates, percent of 359 (C difficile isolates; resistance = MIC≥32 μg/mL, for rifaximin b194 says 'rifaximin alone'): 8%
EAEC O42 adherence to pretreated HEp-2 cells (microscopy, stacked-brick pattern) (EAEC strain O42): adhered in the traditional stacked-brick formation
Cytokines detected in supernatants of treated HEp-2 cells (HEp-2 cells): same profile, except that MIPS was not detected
